# Measurements from patent publication US10220010B2 (AuXin Surgery SA, priority 2014, dated 2019).
# Values joined by “and” are separate entries in the source; they are usually repeats but may differ in a detail not shown here. Identical values can stand only once.
# Assay: impurities levels (Mesna disulphide percentage) of lyophilizate Mesna compositions
# Type: physicochemical
# Conditions: content in composition
# Procedure: Measurements of Mesna disulfide percentage were conducted for different Mesna lyophilizates made according to the present invention. The compositions of the tested Mesna lyophilizates comprised 125 mg or 250 mg of Mesna in 2 ml Water for Injection. Other tested Mesna lyophilizates compositions further comprised trehalose or Mannitol. […] Any slightly higher increase was of maximum 0.5% compared to the Mesna disulfide percentage measured for the pharmaceutical grade Mesna (Table 2). […] In addition, the sum of Mesna disulphide percentage and other impurities percentage was also always lower than said maximum of 3%.
structure (smiles),measurement,setting,value
"O=S(=O)([O-])CCS.[Na+] [Mesna P, Sodium 2-mercaptoethanesulfonate]",MESNA,,98.82% and 98.80% and 98.96%
same,Other impurities,,0.15% and 0.20% and 0.19%
same,Mesna disulphide,stability marker,1.03% and 1.00% and 0.85%
